# Assay results taken from US11760775B2, “Steroids and protein-conjugates thereof” (Regeneron Pharmaceuticals, Inc., priority 2016, dated 2023).
# Values joined by “and” are separate entries in the source; they are usually repeats but may differ in a detail not shown here. Equal entries are not always repeated.
# Tests used:
# [1] = tested on: LPS-induced cytokine release (TNF-α); assay: Mouse model of LPS induced cytokine release (TNF-α in plasma); assay type: in vivo, C57BL/6j mice; conditions: for TNF-a: plasma 2 hr post LPS challenge, individual mice
# [2] = Pharmacokinetics of 4b and 6-I in mice (blood concentration-time); assay type: in vivo, C57BL/6j mice; design: Tmax: unit not given here; conditions: IP, 1 mg/Kg in male C57BL/6 mice, Mean
# [3] = tested on: GR activation in 293/PRLR/GRE-Luc cells (HEK293/9xUAS-Luc2P/pBind-GR/PRLR-HA high cells); assay: GR co-activator luciferase reporter cell based assay in 293/PRLR/GRE-Luc cells; design: species or system human
# Outline: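 EC50 was derived from a 10-point, four-parameter logistic fit of One-Glo luminescence. The reporter is driven by Gal4UAS through GR ligand-binding domain fused to Gal4 DBD in PRLR-expressing 293 cells, after ADC internalization or free steroid exposure. Activation below 10% of the free-payload maximum counts as minimal.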
# [4] = Solubility in water and DMSO/water
# human liver cathepsin B = human liver cathepsin B (Homo sapiens (Human), UniProt P07858); assay: Linker-payload cleavage in Cathepsin B assay; assay type: biochemical; conditions: for Conversion rate (%): Mean
# Method: The linker-payloads were tested in a Cathepsin B assay. After 4 hr incubation in Cathepsin B (CapB) with and without CapB inhibitor ([…]), both linker-payloads and free payload were evaluated using LC-MS/MS.
# The CapB assay procedure follows: Linker-payload stock solution (10 mM in DMSO) was spiked into incubation buffer (100 mM NaOAc, 10 mM dithiothreitol, pH5) to obtain a 50 μM substrate solution. 4 μL of 0.47 μg/μL human liver cathepsin B (Athens Research & Technology, Athens, GA) in 50 mM NaOAc, 1 mM EDTA, pH 5 was added into 196 μL of 50 μM substrate solution. The reaction mixture was incubated at 37° C. for 4 hr. Then 5 μL of acetic acid and 150 μL of acetonitrile (containing osalmid as internal standard) were added to 50/Th of reaction mixture aliquots. After vortexing, the quenched samples were frozen in a −70° C. deep freezer, followed by thawing and centrifugation at 14,000 rpm.
# The CapB assay experiment included the following procedure. • 1. Preheat assay buffer: 0.1 M NaOAc/0.01 M DTT (pH 5.0) • 2. Spiking solutions for test compounds: 25 μM Spiking solutions for test compounds: Add […], of 5 mM stock solution into 398 μL of 0.1 M NaOAc/0.01 M DTT buffer (pH 5.0). • 3. Prepare 0.47m/μL Cathepsin B in 50 mM NaOAc/1 mM EDTA (pH 5.0). Put on ice. • 4. Without CA074 samples: Add […], of 0.47m/μL Cathepsin B into 196 μL of 25 μM Spiking solutions (from step 2), incubate the tubes at 37° C. • 5. With CA074 samples: Add 4 μL of 0.47m/μL Cathepsin B with 4 μL of 10 mM Inhibitor (CA074) into 196 μL of 25 μM Spiking solutions (from step 2), incubate the tubes at 37° C. • 6. After 4 hours, Aliquots of 5 μL (with CA074 and without CA074) were taken for enzyme activity test (step 15-17). Meanwhile, Aliquots of 50 μL were taken at the time point (4 h), adding 5 μL of acetic acid, and then add 150 μL of ACN (IS) to stop the reaction. • 7. After quenching, shake the plate and centrifuge them at 14000 rpm. • 8. Transfer 50 μL of the supernatant from each well into a 96-well sample plate containing 50 μL of ultra pure water (Millipore, ZMQS50F01) for LC/MS analysis.
# The CapB assay experiment included the reference compounds and the following procedure. • 9. Preheat assay buffer: 100 mM Na/K phosphate, pH6.0, with 1.33 mM EDTA and 2 mM DTT. • 10. Prepare 0.024m/μL Cathepsin B: Add […] of 0.47 μg/μL Cathepsin B stock into 19 μL of assay buffer (from step 11). • 11. Add 2 μL of 0.024m/μL Cathepsin B (from step 12) to a opaque 96-well plate. • 12. Add 96 μL of assay buffer to each sample. • 13. Add 2 μL of the 10 mM substrate Z—RR-MNA(200 μM final concentration). • For negative control (with inhibitor), add 2 μL of 10 mM Inhibitor (CA074). • 14. Immediately read the samples in a kinetic mode at excitation of 340 nm/emission of 425 nm (Read the plate every 30 Second for 3 min).
# Stability of Cathepsin B in incubation samples: • 15. Take Take 5 μL of incubation samples into 93 μL of assay buffer (from step 11), and then add 2 μL of 10 mM substrate (Z—RR-MNA). • 16. Incubate the samples at 37° C. for 2 min. • 17. Read the samples at excitation of 340 nm/emission of 425 nm.
# [5] = with CA074 (Cathepsin B inhibitor), 4 hr incubation
# [6] = without CA074, 4 hr incubation with Cathepsin B
smiles,measurement,setting,value
"CCCC1O[C@@H]2C[C@H]3[C@@H]4C[C@H](F)C5=CC(=O)C=C[C@]5(C)[C@@]4(F)[C@@H](O)C[C@]3(C)[C@]2(C(=O)COc2ccc(N)cc2)O1 (stereo partly drawn) [Compound 6-I, (1S,2S,4R,8S,9S,11S,12R,13S,19S)-8-[2-(4-Aminophenoxy)acetyl]-12,19-difluoro-11-hydroxy-9,13-dimethyl-6-propyl-5,7-dioxapentacyclo[10.8.0.0^2,90.0^4,80.0^13,118]icosa-14,17-dien-16-one]",Inhibition of TNF-α production,"[1]; 5 mpk ip before LPS challenge, plasma at 2 hr time point",time dependent inhibition
same,TNF-a,[1]; 5MPK ip (−2 h) prior to LPS,110.6 pg/mL and 30.8 pg/mL and 240.8 pg/mL
same,TNF-a,[1]; 5MPK ip (−24 h) prior to LPS,23.1 pg/mL and 997.3 pg/mL and 55.4 pg/mL
same,TNF-a,[1]; 5MPK ip (−48 h) prior to LPS,1280.1 pg/mL and 1149.4 pg/mL and 750.0 pg/mL
same,Tmax,[2],0.250
same,AUC(0-inf),"[2]; mouse, in vivo, read-out: AUCINF",113 ng·h/mL
same,AUC(0-t),"[2]; mouse, in vivo, read-out: AUClast",107 ng·h/mL
same,Cmax,"[2]; mouse, in vivo, read-out: Cmax",44.8 ng/mL
same,half-life,"[2]; mouse, in vivo, read-out: Terminal t1/2 (converted)",1.91 h
same,EC50,"[3]; Homo sapiens, HEK293, read-out: HEK293/9xUAS-Luc2P/pBind-GR/PRLR-HA high cells EC50",< 0.01 µM
same,HEK293/9xUAS-Luc2P/pBind-GR/PRLR-HA high cells activation relative to Budesonide,[3]; fold activation vs Budesonide,Full
CCC[C@@H]1O[C@@H]2C[C@H]3[C@@H]4CCC5=CC(=O)C=C[C@]5(C)[C@H]4[C@@H](O)C[C@]3(C)[C@]2(C(=O)COc2ccc(NC(=O)[C@H](C)NC(=O)[C@@H](NC(=O)CCOCCOCCOCCOCCNC(=O)CCC(=O)N3Cc4ccccc4C#Cc4ccccc43)C(C)C)cc2)O1 [LP7],solubility,"[4]; 20% DMSO in water, aqueous with cosolvent or surfactant or cyclodextrin",60 µg/mL
same,solubility,"[4]; 30% DMSO in water, aqueous with cosolvent or surfactant or cyclodextrin",70 µg/mL
same,solubility,[4]; water,< 100 µg/mL
CCC[C@@H]1O[C@@H]2C[C@H]3[C@@H]4CCC5=CC(=O)C=C[C@]5(C)[C@H]4[C@@H](O)C[C@]3(C)[C@]2(C(=O)COc2ccc(NC(=O)[C@H](C)NC(=O)[C@@H](NC(=O)[C@@H](CCCCNC(=O)COC3CCCCCc4c3nnn4CC3OC4OC5C(CO)OC(OC6C(CO)OC(OC7C(CO)OC(OC8C(CO)OC(OC9C(CO)OC(OC3C(O)C4O)C(O)C9O)C(O)C8O)C(O)C7O)C(O)C6O)C(O)C5O)NC(=O)CCOCCOCCOCCOCCNC(=O)CCC(=O)N3Cc4ccccc4C#Cc4ccccc43)C(C)C)cc2)O1 (stereo partly drawn) [LP16],solubility,"[4]; 10% DMSO in water, aqueous with cosolvent or surfactant or cyclodextrin",100 µg/mL
CCCC1O[C@@H]2C[C@H]3[C@@H]4C[C@H](F)C5=CC(=O)C=C[C@]5(C)[C@@]4(F)[C@@H](O)C[C@]3(C)[C@]2(C(=O)CNC(=O)OCc2ccc(NC(=O)[C@H](CCCNC(N)=O)NC(=O)[C@@H](NC(=O)[C@@H](CCCCNC(=O)COC3CCCCCc4c3nnn4CC3OC4OC5C(CO)OC(OC6C(CO)OC(OC7C(CO)OC(OC8C(CO)OC(OC9C(CO)OC(OC3C(O)C4O)C(O)C9O)C(O)C8O)C(O)C7O)C(O)C6O)C(O)C5O)NC(=O)CCOCCOCCOCCOCCNC(=O)CCC(=O)N3Cc4ccccc4C#Cc4ccccc43)C(C)C)cc2)O1 (stereo partly drawn) [LP104],Cleavage by Cathepsin B and payload release,"human liver cathepsin B; 4 hr incubation, LC-MS/MS",could be cleaved by CapB and released more payload (4b)
same,Conversion rate (%),human liver cathepsin B; [5],<1.00%
same,Conversion rate (%),human liver cathepsin B; [6],29.0%
CCCC1O[C@@H]2C[C@H]3[C@@H]4C[C@H](F)C5=CC(=O)C=C[C@]5(C)[C@@]4(F)[C@@H](O)C[C@]3(C)[C@]2(C(=O)CNC(=O)OCc2ccc(NC(=O)[C@H](CCCNC(N)=O)NC(=O)[C@@H](NC(=O)CCOCCOCCOCCOCCNC(=O)CCC(=O)N3Cc4ccccc4C#Cc4ccccc43)C(C)C)cc2)O1 (stereo partly drawn) [LP112],Conversion rate (%),human liver cathepsin B; [5],<1.00%
same,Conversion rate (%),human liver cathepsin B; [6],20.8%
CCCC1O[C@@H]2C[C@H]3[C@@H]4C[C@H](F)C5=CC(=O)C=C[C@]5(C)[C@@]4(F)[C@@H](O)C[C@]3(C)[C@]2(C(=O)COc2ccc(NC(=O)OCc3ccc(NC(=O)[C@H](CCCNC(N)=O)NC(=O)[C@@H](NC(=O)CCOCCOCCOCCOCCNC(=O)CCC(=O)N4Cc5ccccc5C#Cc5ccccc54)C(C)C)cc3)cc2)O1 (stereo partly drawn) [LP116],Conversion rate (%),human liver cathepsin B; [5],<1.00%
